From patent publication US7816407B2, “Agmatine and agmatine analogs in the treatment of epilepsy, seizure, and electroconvulsive disorders” (University of Kentucky Research Foundation, priority 2000, dated 2010)

How the values were obtained:
[1] = system: MES-induced seizure spread (hindlimb tonic extension); assay: Maximal Electroshock Seizure (MES) test; type: in vivo, rat
Source text: The MES is an experimental model for generalized tonic-clonic seizures that identifies compounds which prevent seizure spread. The MES model is highly reproducible and has a consistent endpoint. An advantage of this model is that the behavioral and electrographic seizures are consistent with those observed in humans (Levy, R. H., Antiepileptic drugs. 3rd Ed. 1989, New York: Raven Press. xxvii, 1025. p. 85-102).
In the MES test, the animal receives an electrical stimulus, 0.2 seconds in duration, via corneal electrodes primed with an electrolyte solution containing an anesthetic agent. The 0.2 second stimulation is generated with 150 mA in rats at 60 Hz. Twenty rats, weighing between 105 g and 130 g receive an electrical stimulus 15 minutes, 30 minutes, 1 hour, 2 hours, 4 hours, 8 hours and 12 hours after oral administration of a dose of about 30 mg/kg of agmatine in phosphate buffered in saline per kg of the animal. The test endpoint, electrogenic seizure, is manifested as hindlimb tonic extension.

mice = assay: Rotorod neurotoxicity test; type: in vivo, mouse; details: doses as high as 300 mg/kg
Procedure: (§1) Toxicity in mice and rats is assessed using three screens: the rotorod in mice, positional sense, and gait in rats. In mice, the test compound is administered at doses of 30, 100, and 300 mg/kg prior to evaluation in the toxicity screens. The mice are tested 0.5 hours and 4 hours after administration of the test compound. In rats, the test compound is administered at 30 mg/kg prior to the toxicity assessment. The rats are tested at 0.25, 0.5, 1, 2, and 4 hours after administration of the test compound.
Toxicity in mice weighing between 20.5 and 25.5 g is assessed using the standardized rotorod test (Dunham, M. S. and T. A. Miya, A note on a simple apparatus for detecting neurological deficit in rats and mice, J. Am. Pharm. Assoc. Sci. Edit (1957) 46:208-209). Control mice can maintain their equilibrium for an extended period of time when they are placed on a 6 rpm rotation rod. Neurologically impaired animals cannot maintain equilibrium for one minute in each of three successive trials.

rats [2] = assay: Positional sense test; type: in vivo, rat; details: oral or intraperitoneal, 30 mg/kg
Procedure: as §1
Behavioral toxicity in rats weighing between 105 and 130 g is assessed by the positional sense test. […] If the rat experiences neurological toxicity, it will not be able to quickly lift its leg back to a normal position.

rats [3] = assay: Gait and stance test; type: in vivo, rat; details: oral or intraperitoneal, 30 mg/kg
Procedure: as §1
In the gait and stance test, neurotoxicity is indicated by a circular or zigzag gait after administration of the test compound. In addition, ataxia, abnormal spread of the legs, abnormal posture, tremor hyperactivity, lack of exploratory behavior, somnolence, stupor, or catalepsy can indicate neurotoxicity. This toxicity test was conducted on 20 rats, weighing between 105 and 130 g.

## NCCCCN=C(N)N [agmatine, 4-aminobutylguanidine]
[1]; intraperitoneal, 4 hours before electrical shock
  rats protected from MES-induced seizure spread: 50%
[1]; oral 30 mg/kg, shock 0.25 hours after administration
  rats protected from MES-induced seizure spread: 37.5%
[1]; oral 30 mg/kg, shock 0.5 hours after administration
  rats protected from MES-induced seizure spread: 12.5%
[1]; oral 30 mg/kg, shock 2 hours after administration
  rats protected from MES-induced seizure spread: 12.5%
[1]; oral 30 mg/kg, shock 4 hours after administration
  rats protected from MES-induced seizure spread: 75%
[1]; oral 30 mg/kg, shock 6 hours after administration
  rats protected from MES-induced seizure spread: 25%
mice
  behavioral or neurotoxicity in rotorod test: none of these animals showed any evidence of behavioral or neurotoxicity
Rats [2]
  neurotoxicity in positional sense test: no neurotoxicity
Rats [3]
  neurotoxicity in gait and stance test: no neurotoxicity
